Common to all, as to test: NCI tumour cell line growth inhibition, 48 h
The subject of assay [1] is DU-145 prostate.
For assay [2], the system named is HL-60(TB) leukemia.
The subject of assay [3] is HOP-92 NSCLC.
In assay [4] the test system is M14 melanoma.
Assay [5] relates to MDA-MB-231 breast.
Assay [6] has as its system MDA-MB-435.
The test system of assay [7] is OVCAR-4 ovarian.
For assay [8], the system named is SK-MEL-5 melanoma.
The test system of assay [9] is UACC-257 melanoma.
The test system of assay [10] is NCI-H226 lung.

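Cultured in 96-well plates, cells were exposed to test compound for 48 hours across five concentrations. The concentration for 50% growth inhibition is given as GI50. Definition used: TGI = concentration required for complete inhibition of growth.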

For `Oc1ccc(NCn2c(=S)sc3ccccc32)cc1`, the TGI in assay [1], in assay [2], in assay [3], in assay [4], in [5] and in assay [6] was above 100 µM throughout. Moreover, the TGI in assay [7], in assay [8] and in [9] was above 100 µM throughout.

For the molecule `COc1cc(-c2cccs2)sc1-c1cccs1`, the TGI in [2] is 36.6 µM; in assay [3] it was 78.9 µM; in assay [4], above 100 µM; in assay [10], above 100 µM; in [7], above 100 µM; in assay [8], above 100 µM. The molecule also came in with a TGI in assay [9] above 100 µM.

For `C=C1C(=O)O[C@@H]2/C=C(C)/C=C\[C@@H]3O[C@@]3(C)C[C@@H](O)C12` (stereo partly drawn), the TGI was determined as 14.5 µM in [1]; 8.93 µM in assay [2]; 20.4 µM in [3]; 49.2 µM in assay [4]; 39.6 µM in assay [6]; 29.7 µM in assay [10]. For the same molecule, the TGI turned out to be 38.2 µM in assay [7], 29 µM in [8] and 28.1 µM in [9].

As for `CSC(=O)c1sc(SC)[n+](-c2ccccc2)c1O`, the TGI stood at 29.5 µM in [1]; 29.2 µM in assay [4]; 39 µM in assay [5]; 35.5 µM in [6]; 52.9 µM in assay [10]; 24.9 µM in assay [7]. In [8], the TGI amounted to 55.7 µM.

`O=C(CC1Sc2ccccc2NC1=O)Nc1ccccc1[N+](=O)[O-]` (stereo not drawn): the TGI in assay [2], in [3], in [4], in assay [10], in [7] and in assay [8] was above 100 µM in each case. In addition, the TGI in assay [9] was above 100 µM.

As to `CCOC(=O)c1nnn(CCCCO)c1C(=O)OCC`, the TGI in assay [1], in assay [3], in assay [5], in [6], in assay [10] and in assay [7] was above 100 µM throughout. Also, the TGI in [8] and in assay [9] was above 100 µM in each case.

As for `O=C1c2cc3c(cc2CC12Cc1ccc4c(c1C2=O)CCC4)CCCC3` (stereo not drawn), the TGI in [1], in [2], in assay [3], in [4], in assay [5] and in assay [6] was above 100 µM throughout. The TGI in assay [7], in [8] and in assay [9] was above 100 µM throughout.

On to `CON(C)C(=O)C(C)N(Cc1ccccc1)Cc1ccccc1` (stereo not drawn), for which the TGI in [1], in [2], in assay [3], in assay [4], in assay [6] and in [10] was above 100 µM throughout. In addition, the TGI in [8] and in assay [9] was above 100 µM throughout.

Regarding `N#Cc1nc(-c2cnccn2)oc1N`, the TGI in assay [1], in [2], in assay [3], in [4], in assay [5] and in assay [6] was above 100 µM each time. For the same molecule, the TGI in assay [8] and in [9] was above 100 µM each time.

In the case of `COc1ccc(NC(=S)c2ccc(CN3CCCCC3)s2)cc1`, the TGI is above 100 µM in assay [1]; 31.9 µM in [2]; 35.4 µM in assay [4]; 34.7 µM in [6]; above 100 µM in assay [7]; 28 µM in assay [8]. Further, the TGI in assay [9] turned out to be 35.6 µM.

Regarding `O=c1cc(-c2ccc3c(c2)OCO3)[nH]c2cc3c(cc12)OCO3`, the TGI in [2] was 66.6 µM; in assay [3], above 100 µM; in assay [4] it was above 100 µM; in assay [10] it was above 100 µM; in assay [7], above 100 µM; in assay [8], above 100 µM. Further, the GI50 in assay [8] was 25.4 µM.

For `O=C(Nc1c(O)[nH]c(=S)[nH]c1=O)c1ccccc1`, the TGI in [2], in assay [3], in [4], in assay [10], in assay [7] and in assay [8] was above 100 µM throughout. This molecule also showed a TGI in assay [9] above 100 µM.

For `Cc1ccc(S[C@@H](C)[C@@](O)(CF)CN(Cc2ccccc2)C(=O)C(F)(F)F)cc1`, the TGI is 53.2 µM in assay [1]; 46.2 µM in [2]; above 100 µM in assay [3]; 31.7 µM in assay [4]; 54.3 µM in assay [5]; 40.4 µM in assay [6]. Also, the results for the TGI in assay [7] and in assay [9] were 34.2 µM and 56.8 µM, respectively.

As to `O=S(=O)(O)c1cc(N=Nc2c(O)ccc3ccccc23)cc2c(S(=O)(=O)O)cccc12`, the TGI in [2], in [3], in [4], in assay [5], in assay [6] and in assay [10] was above 100 µM throughout. Also, the TGI in [7], in [8] and in [9] was above 100 µM in each case.

`COc1cc(C2C(Cl)C(=O)N2n2cnc3ccccc3c2=O)ccc1O` (stereo not drawn): the TGI in assay [4] is above 100 µM; in [10], above 100 µM; in [7], above 100 µM; in assay [8], above 100 µM; in assay [9], 99.6 µM.

Take `CO[C@](C(=O)OC[C@H]1[C@@H](COC(C)=O)[C@@H]2O[C@H]1c1cc3c(cc12)OCO3)(c1ccccc1)C(F)(F)F`: the TGI in [1], in assay [3], in assay [4], in [5], in assay [6] and in [7] was above 100 µM in each case. Further, the TGI in assay [8] and in assay [9] was above 100 µM each time.
